Where two headings read alike, the source gives them in different places.

Data on 19 compounds can be found in patent US20230183219A1, “CONDENSED SUBSTITUTED HYDROPYRROLES AS ANTAGONISTS OF THE MUSCARINIC ACETYLCHOLINE RECEPTOR M4” (Vanderbilt University, priority 2020, published 2023).

The target of the test is T1, Human M4 (Homo sapiens, UniProt P08173).
T1 construct: Human or rat M4 cDNA, along with the chimeric G protein Gqi5, were transfected into Chinese hamster ovary (CHO-K1) cells; expressed in transfected cells; host or cells: CHO-K1 (Chinese hamster ovary, ATCC), stably co-expressing Gqi5
T1 sequence (P08173 1-479): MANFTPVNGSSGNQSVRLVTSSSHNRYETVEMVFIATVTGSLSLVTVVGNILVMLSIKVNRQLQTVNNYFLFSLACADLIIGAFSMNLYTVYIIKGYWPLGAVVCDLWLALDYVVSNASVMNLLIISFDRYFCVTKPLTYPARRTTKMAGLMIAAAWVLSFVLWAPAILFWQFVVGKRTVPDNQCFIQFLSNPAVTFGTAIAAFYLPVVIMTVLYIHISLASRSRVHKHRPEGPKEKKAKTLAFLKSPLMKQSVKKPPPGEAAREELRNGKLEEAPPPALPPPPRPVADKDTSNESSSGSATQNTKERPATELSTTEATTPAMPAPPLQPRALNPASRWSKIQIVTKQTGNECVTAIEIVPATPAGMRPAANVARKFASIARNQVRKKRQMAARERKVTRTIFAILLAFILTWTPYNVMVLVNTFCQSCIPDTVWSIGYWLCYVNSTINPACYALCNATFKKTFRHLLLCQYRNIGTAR
The test is described as follows: mAChR M4 cell-based functional assay (calcium flux, decrease of EC80 acetylcholine response). Conditions: for remaining activity at 30 µM: read-out: Human M4 Emin; for IC50: M4/Gqi5/CHO-K1 cells, decrease of response to EC80 acetylcholine. The procedure, abridged:
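IC50 reflects inhibition of an EC80 acetylcholine calcium response, fitted by four-parameter logistic equation. Fluo-4-loaded M4/Gqi5 CHO-K1 cells received compound (10-point, 1:3 series) 2 s into the FDSS read, then EC20 acetylcholine at 143 s and EC80 at 268 s.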

In the case of `Fc1ccc(C(F)(F)F)c(-c2cc(C(F)(F)F)c(N[C@H]3C[C@@H]4CN(CC5CCOCC5)C[C@@H]4C3)nn2)c1` [Example 45, (3aR,5s,6aS)-N-(6-(5-fluoro-2-(trifluoromethyl)phenyl)-4-(trifluoromethyl)pyridazin-3-yl)-2-((tetrahydro-2H-pyran-4-yl)methyl)octahydro-cyclopenta[c]pyrrol-5-amine], the IC50 was found to be 35.3 nM. Besides, the remaining activity at 30 µM (% ACh maximum at 30 μM) was 3%.
On the same counts, the results for `[2H]C([2H])(C1CCOCC1)N1C[C@H]2C[C@H](Nc3cc(C(F)(F)F)c(-c4cc(F)ccc4Cl)nn3)C[C@H]2C1` [Example 129, (3aR,5s,6aS)-N-(6-(2-chloro-5-fluorophenyl)-5-(trifluoro-methyl)pyridazin-3-yl)-2-((tetrahydro-2H-pyran-4-yl)methyl-d2)octahydrocyclopenta[c]pyrrol-5-amine] are 2.3 nM and 2%.
For the compound `[2H]C([2H])(C1CCOCC1)N1C[C@H]2C[C@H](Nc3nnc(-c4ccccc4OC)cc3C(F)(F)F)C[C@H]2C1` [Example 107, (3aR,5s,6aS)-N-(6-(2-methoxyphenyl)-4-(trifluoromethyl)pyridazin-3-yl)-2-((tetrahydro-2H-pyran-4-yl)methyl-d2)octahydro-cyclopenta[c]pyrrol-5-amine], the IC50 was 26.4 nM. Where the note is “% ACh maximum at 30 μM”, the remaining activity at 30 µM came to 3%.
With `Cc1ccc(F)cc1-c1cc(C#N)c(N[C@H]2C[C@@H]3CN(C[C@@H]4CC5CCC4O5)C[C@@H]3C2)nn1` (stereo partly drawn) [Example 147, 3-(((3aR,5s,6aS)-2-(((2S)-7-oxabicyclo[2.2.1]heptan-2-yl)methyl)octahydro-cyclopenta[c]pyrrol-5-yl)amino)-6-(5-fluoro-2-methylphenyl)pyridazine-4-carbonitrile], the IC50 worked out at 0.8 nM. Besides, the remaining activity at 30 µM (% ACh maximum at 30 μM) was 5%.
Turning to `Cc1ccc(F)cc1-c1cc(C(F)(F)F)c(N[C@H]2C[C@@H]3CN(C[C@H]4CCOC4)C[C@@H]3C2)nn1` [Example 31, (3aR,5s,6aS)-N-(6-(5-fluoro-2-methylphenyl)-4-(trifluoromethyl)pyridazin-3-yl)-2-(((R)-tetrahydrofuran-3-yl)methyl)octahydro-cyclopenta[c]pyrrol-5-amine], the IC50 came out at 130 nM. For the same compound, the remaining activity at 30 µM (% ACh maximum at 30 μM) was 5%.
As for `CCOc1ccc(F)cc1-c1cc(C(F)(F)F)c(N[C@H]2C[C@@H]3CN(CC4CCOCC4)C[C@@H]3C2)nn1` [Example 73, (3aR,5s,6aS)-N-(6-(2-ethoxy-5-fluorophenyl)-4-(trifluoromethyl)pyridazin-3-yl)-2-((tetrahydro-2H-pyran-4-yl)methyl)octahydro-cyclopenta[c]pyrrol-5-amine], the IC50 came to 201 nM. Where the note is “% ACh maximum at 30 μM”, the remaining activity at 30 µM came to 3%.
Regarding `Fc1cc(OC(F)F)ccc1-c1cc(C(F)(F)F)c(N[C@H]2C[C@@H]3CN(CC4CCOCC4)C[C@@H]3C2)nn1` [Example 83, (3aR,5s,6aS)-N-(6-(2-fluoro-4-(difluoromethoxy)phenyl)-4-(trifluoromethyl)pyridazin-3-yl)-2-((tetrahydro-2H-pyran-4-yl)methyl)octahydro-cyclopenta[c]pyrrol-5-amine], the concentration for half-maximal inhibition (IC50) was found to be 408 nM. Besides, where the note is “% ACh maximum at 30 μM”, the remaining activity at 30 µM was found to be 3%.
Turning to `Cc1ccc(-c2cc(C(F)(F)F)c(N[C@H]3C[C@@H]4CN(CC5CCOCC5)C[C@@H]4C3)nn2)c(C)c1` [Example 59, (3aR,5s,6aS)-N-(6-(2,4-dimethylphenyl)-4-(trifluoromethyl)pyridazin-3-yl)-2-((tetrahydro-2H-pyran-4-yl)methyl)octahydro-cyclopenta[c]pyrrol-5-amine], the IC50 stood at 67.7 nM. Where the note is “% ACh maximum at 30 μM”, the remaining activity at 30 µM was 3%.
As to `Cc1ccc(C)c(-c2cc(C(F)(F)F)c(N[C@H]3C[C@@H]4CN(C[C@H]5COCCO5)C[C@@H]4C3)nn2)c1` [Example 72, (3aR,5s,6aS)-2-(((S)-1,4-dioxan-2-yl)methyl)-N-(6-(2,5-dimethylphenyl)-4-(trifluoromethyl)pyridazin-3-yl)octahydro-cyclopenta[c]pyrrol-5-amine], the IC50 was found to be 52.9 nM. Further, the remaining activity at 30 µM (% ACh maximum at 30 μM) was found to be 3%.
Turning to `Cn1cc2cc(-c3cnc(N[C@H]4C[C@@H]5CN(CC6CCOCC6)C[C@@H]5C4)nc3)ccc2n1` [Example 12, (3aR,5s,6aS)-N-(5-(2-methyl-2H-indazol-5-yl)pyrimidin-2-yl)-2-((tetrahydro-2H-pyran-4-yl)methyl)octahydro-cyclopenta[c]pyrrol-5-amine], the IC50 was 2750 nM and the remaining activity at 30 µM was 10%.
In the case of `Fc1ccc(Cl)c(-c2cc(C(F)(F)F)c(N[C@H]3C[C@@H]4CN(Cc5ccccn5)C[C@@H]4C3)nn2)c1` [Example 100, (3aR,5s,6aS)-N-(6-(2-chloro-5-fluorophenyl)-4-(trifluoromethyl)pyridazin-3-yl)-2-(pyridin-2-ylmethyl)octahydro-cyclopenta[c]pyrrol-5-amine], the half-inhibitory concentration (IC50) came out at 269 nM. Besides, for the setting “% ACh maximum at 30 μM”, the remaining activity at 30 µM was found to be 4%.
As to `Cn1cc2cc(-c3cc(C(F)(F)F)c(N[C@H]4C[C@@H]5CN(C[C@@H]6COCCO6)C[C@@H]5C4)nn3)ccc2n1` [Example 35, (3aR,5s,6aS)-2-(((R)-1,4-dioxan-2-yl)methyl)-N-(6-(2-methyl-2H-indazol-5-yl)-4-(trifluoromethyl)pyridazin-3-yl)octahydro-cyclopenta[c]pyrrol-5-amine], the IC50 came to 147 nM. Besides, the remaining activity at 30 µM (% ACh maximum at 30 μM) was 6%.
As for `[2H]C([2H])([2H])N(c1cc(C(F)(F)F)c(-c2ccc3nn(C)cc3c2C)nn1)[C@H]1C[C@@H]2CN(CC3CCOCC3)C[C@@H]2C1` [Example 7, (3aR,5s,6aS)—N-(6-(2,4-dimethyl-2H-indazol-5-yl)-5-(trifluoromethyl)pyridazin-3-yl)-N-(methyl-d3)-2-((tetrahydro-2H-pyran-4-yl)methyl)octahydrocyclopenta [c]pyrrol-5-amine], the “Human M4 Emin” value (% ACh maximum at 30 μM) came to 15%.
Turning to `Cc1nn(C)c(C)c1-c1cc(C(F)(F)F)c(N[C@H]2C[C@@H]3CN(CC4CCOCC4)C[C@@H]3C2)nn1` [Example 40, (3aR,5s,6aS)-2-((tetrahydro-2H-pyran-4-yl)methyl)-N-(4-(trifluoromethyl)-6-(1,3,5-trimethyl-1H-pyrazol-4-yl)pyridazin-3-yl)octahydro-cyclopenta[c]pyrrol-5-amine], the 50% inhibitory concentration (IC50) came to 184 nM. Also, the remaining activity at 30 µM (% ACh maximum at 30 μM) was 4%.
For the compound `COc1ccc(-c2cc(C(F)(F)F)c(N[C@H]3C[C@@H]4CN(CC5CCOCC5)C[C@@H]4C3)nn2)c(C)c1` [Example 77, (3aR,5s,6aS)-N-(6-(4-methoxy-2-methylphenyl)-4-(trifluoromethyl)pyridazin-3-yl)-2-((tetrahydro-2H-pyran-4-yl)methyl)octahydro-cyclopenta[c]pyrrol-5-amine], the IC50 turned out to be 38 nM. The remaining activity at 30 µM (% ACh maximum at 30 μM) was 3%.
As to `Cc1c(-c2cc(C(F)(F)F)c(N[C@H]3C[C@@H]4CN(CC5CCOCC5)C[C@@H]4C3)nn2)ccc2nn(C)cc12` [Example 39, (3aR,5s,6aS)-N-(6-(2,4-dimethyl-2H-indazol-5-yl)-4-(trifluoromethyl)pyridazin-3-yl)-2-((tetrahydro-2H-pyran-4-yl)methyl)octahydro-cyclopenta[c]pyrrol-5-amine], the IC50 was found to be 2.1 nM. In addition, the remaining activity at 30 µM (% ACh maximum at 30 μM) worked out at 2%.
Consider `Cc1ccc(C(F)(F)F)cc1-c1cc(C(F)(F)F)c(N[C@H]2C[C@@H]3CN(CC4CCOCC4)C[C@@H]3C2)nn1` [Example 53, (3aR,5s,6aS)-N-(6-(2-methyl-5-(trifluoromethyl)phenyl)-4-(trifluoromethyl)pyridazin-3-yl)-2-((tetrahydro-2H-pyran-4-yl)methyl)octahydro-cyclopenta[c]pyrrol-5-amine], for which the IC50 was 315 nM. In addition, the remaining activity at 30 µM (% ACh maximum at 30 μM) was found to be 3%.
Take `Fc1ccc(C2CC2)cc1-c1cc(C(F)(F)F)c(N[C@H]2C[C@@H]3CN(CC4CCOCC4)C[C@@H]3C2)nn1` [Example 94, (3aR,5s,6aS)-N-(6-(5-cyclopropyl-2-fluorophenyl)-4-(trifluoromethyl)pyridazin-3-yl)-2-((tetrahydro-2H-pyran-4-yl)methyl)octahydro-cyclopenta[c]pyrrol-5-amine]: the IC50 was 1330 nM. For the same compound, the remaining activity at 30 µM (% ACh maximum at 30 μM) stood at 3%.
For the compound `Cn1cc2cc(-c3cc(C(F)(F)F)c(N[C@H]4C[C@@H]5CN(C[C@@H]6CCOC6)C[C@@H]5C4)nn3)ccc2n1` [Example 32, (3aR,5s,6aS)-N-(6-(2-methyl-2H-indazol-5-yl)-4-(trifluoro-methyl)pyridazin-3-yl)-2-(((S)-tetrahydrofuran-3-yl)methyl)octahydro-cyclopenta[c]pyrrol-5-amine], the IC50 amounted to 162 nM. Moreover, under “% ACh maximum at 30 μM”, the remaining activity at 30 µM is 6%.
